tested on: SEM cells; experiment: Antiproliferative MTT assay, SEM; format: cell-based, human; details: Homo sapiens, 72 h, mean ± SE
Description: (§1) Human T-cell leukemia (Jurkat) and human B-cell leukemia (SEM and RS4;11) cells were grown in RPMI-1640 medium (Gibco, Milano, Italy). Breast adenocarcinoma (MCF-7), human cervix carcinoma (HeLa), human lung adenocarcinoma (A549) and human colon adenocarcinoma (HT-29) cells were grown in DMEM medium (Gibco, Milano, Italy), all supplemented with 115 units/mL penicillin G (Gibco, Milano, Italy), 115 μg/mL streptomycin (Invitrogen, Milano, Italy), and 10% fetal bovine serum (FBS; Invitrogen, Milano, Italy). Stock solutions (10 mM) of the different compounds were obtained by dissolving them in DMSO. Individual wells of a 96-well tissue culture microtiter plate were inoculated with 100 μL of complete medium containing 8 × 10^3 cells. The plates were incubated at 37 °C in a humidified 5% CO2 incubator for 18 h prior to the experiments. After medium removal, 100 μL of fresh medium containing the test compound at different concentrations was added to each well in triplicate and incubated at 37 °C for 72 h. The percentage of DMSO in the medium never exceeded 0.25%. This was also the maximum DMSO concentration in all cell-based assays described below.

| SMILES | IC50 |
| --- | --- |
| COc1cc(-c2oc(C)nc2-c2ccc(F)cc2)cc(OC)c1OC [Compound 5b, 4-(4-Fluorophenyl)-5-(3,4,5-trimethoxyphenyl)-2-methyloxazole] | > 10000 nM |
| COc1ccc(-c2nc(C)oc2-c2cc(OC)c(OC)c(OC)c2)cc1 [Compound 5e, 5-(3,4,5-Trimethoxyphenyl)-4-(4-methoxyphenyl)-2-methyloxazole] | 96.6 ± 22.5 nM |
| COc1ccc(-c2nc(C)sc2-c2cc(OC)c(OC)c(OC)c2)cc1 [Compound 3e, 2-methyl-4-(4′-methoxyphenyl)-5-(3′,4’,5′-trimethoxyphenyl)thiazole, reference compound] | 1980 ± 780 nM |
| COc1ccc(-c2oc(C)nc2-c2cc(OC)c(OC)c(OC)c2)cc1 [Compound 4e, 4-(3,4,5-Trimethoxyphenyl)-5-(4-methoxyphenyl)-2-methyloxazole] | 35.6 ± 12.5 nM |

tested on: Jurkat; experiment: Antiproliferative MTT assay, Jurkat; format: cell-based, human; details: Homo sapiens, Jurkat, 72 h, mean ± SE
Description: as §1

| SMILES | IC50 |
| --- | --- |
| COc1cc(-c2oc(C)nc2-c2ccc3ccccc3c2)cc(OC)c1OC [Compound 5a, 5-(3,4,5-Trimethoxyphenyl)-2-methyl-4-(naphthalen-3-yl)oxazole] | 638 ± 154 nM |
| COc1cc(-c2oc(C)nc2-c2ccc(F)cc2)cc(OC)c1OC [Compound 5b, 4-(4-Fluorophenyl)-5-(3,4,5-trimethoxyphenyl)-2-methyloxazole] | 9000 ± 577 nM |
| COc1ccc(-c2nc(C)oc2-c2cc(OC)c(OC)c(OC)c2)cc1 [Compound 5e, 5-(3,4,5-Trimethoxyphenyl)-4-(4-methoxyphenyl)-2-methyloxazole] | 43.6 ± 12.3 nM |
| COc1ccc(-c2nc(C)sc2-c2cc(OC)c(OC)c(OC)c2)cc1 [Compound 3e, 2-methyl-4-(4′-methoxyphenyl)-5-(3′,4’,5′-trimethoxyphenyl)thiazole, reference compound] | 7200 ± 586 nM |
| COc1ccc(-c2oc(C)nc2-c2cc(OC)c(OC)c(OC)c2)cc1 [Compound 4e, 4-(3,4,5-Trimethoxyphenyl)-5-(4-methoxyphenyl)-2-methyloxazole] | 18.7 ± 6 nM |

tested on: not given; experiment: not given; details: not given

| SMILES | melting point |
| --- | --- |
| COc1cc(-c2oc(C)nc2-c2ccc3ccccc3c2)cc(OC)c1OC [Compound 5a, 5-(3,4,5-Trimethoxyphenyl)-2-methyl-4-(naphthalen-3-yl)oxazole] | 95 to 97 °C |
| COc1cc(-c2oc(C)nc2-c2ccc(F)cc2)cc(OC)c1OC [Compound 5b, 4-(4-Fluorophenyl)-5-(3,4,5-trimethoxyphenyl)-2-methyloxazole] | 132 to 133 °C |
| COc1ccc(-c2nc(C)oc2-c2cc(OC)c(OC)c(OC)c2)cc1 [Compound 5e, 5-(3,4,5-Trimethoxyphenyl)-4-(4-methoxyphenyl)-2-methyloxazole] | 108 to 110 °C |
| COc1ccc(-c2oc(C)nc2-c2cc(OC)c(OC)c(OC)c2)cc1 [Compound 4e, 4-(3,4,5-Trimethoxyphenyl)-5-(4-methoxyphenyl)-2-methyloxazole] | 134 to 136 °C |

tested on: HT-29; experiment: Antiproliferative MTT assay, HT-29; format: cell-based, human; details: Homo sapiens, HT-29, 72 h, mean ± SE
Description: as §1

| SMILES | IC50 |
| --- | --- |
| COc1cc(-c2oc(C)nc2-c2ccc3ccccc3c2)cc(OC)c1OC [Compound 5a, 5-(3,4,5-Trimethoxyphenyl)-2-methyl-4-(naphthalen-3-yl)oxazole] | 315 ± 145 nM |
| COc1cc(-c2oc(C)nc2-c2ccc(F)cc2)cc(OC)c1OC [Compound 5b, 4-(4-Fluorophenyl)-5-(3,4,5-trimethoxyphenyl)-2-methyloxazole] | > 10000 nM |
| COc1ccc(-c2nc(C)oc2-c2cc(OC)c(OC)c(OC)c2)cc1 [Compound 5e, 5-(3,4,5-Trimethoxyphenyl)-4-(4-methoxyphenyl)-2-methyloxazole] | 12.3 ± 5.9 nM |
| COc1ccc(-c2nc(C)sc2-c2cc(OC)c(OC)c(OC)c2)cc1 [Compound 3e, 2-methyl-4-(4′-methoxyphenyl)-5-(3′,4’,5′-trimethoxyphenyl)thiazole, reference compound] | 3700 ± 263 nM |
| COc1ccc(-c2oc(C)nc2-c2cc(OC)c(OC)c(OC)c2)cc1 [Compound 4e, 4-(3,4,5-Trimethoxyphenyl)-5-(4-methoxyphenyl)-2-methyloxazole] | 40.8 ± 19.7 nM |

tested on: MCF-7; experiment: Antiproliferative MTT assay, MCF-7; format: cell-based, human; details: Homo sapiens, MCF7, 72 h, mean ± SE
Description: as §1

| SMILES | IC50 |
| --- | --- |
| COc1cc(-c2oc(C)nc2-c2ccc3ccccc3c2)cc(OC)c1OC [Compound 5a, 5-(3,4,5-Trimethoxyphenyl)-2-methyl-4-(naphthalen-3-yl)oxazole] | 5.2 ± 2.4 nM |
| COc1cc(-c2oc(C)nc2-c2ccc(F)cc2)cc(OC)c1OC [Compound 5b, 4-(4-Fluorophenyl)-5-(3,4,5-trimethoxyphenyl)-2-methyloxazole] | > 10000 nM |
| COc1ccc(-c2nc(C)oc2-c2cc(OC)c(OC)c(OC)c2)cc1 [Compound 5e, 5-(3,4,5-Trimethoxyphenyl)-4-(4-methoxyphenyl)-2-methyloxazole] | 83.8 ± 20.2 nM |
| COc1ccc(-c2nc(C)sc2-c2cc(OC)c(OC)c(OC)c2)cc1 [Compound 3e, 2-methyl-4-(4′-methoxyphenyl)-5-(3′,4’,5′-trimethoxyphenyl)thiazole, reference compound] | 1930 ± 448 nM |
| COc1ccc(-c2oc(C)nc2-c2cc(OC)c(OC)c(OC)c2)cc1 [Compound 4e, 4-(3,4,5-Trimethoxyphenyl)-5-(4-methoxyphenyl)-2-methyloxazole] | 27.7 ± 12 nM |

tested on: HeLa; experiment: Antiproliferative MTT assay, HeLa; format: cell-based, human; details: Homo sapiens, HeLa, 72 h, mean ± SE
Description: as §1

| SMILES | IC50 |
| --- | --- |
| COc1cc(-c2oc(C)nc2-c2ccc3ccccc3c2)cc(OC)c1OC [Compound 5a, 5-(3,4,5-Trimethoxyphenyl)-2-methyl-4-(naphthalen-3-yl)oxazole] | 37 ± 14.4 nM |
| COc1cc(-c2oc(C)nc2-c2ccc(F)cc2)cc(OC)c1OC [Compound 5b, 4-(4-Fluorophenyl)-5-(3,4,5-trimethoxyphenyl)-2-methyloxazole] | > 10000 nM |
| COc1ccc(-c2nc(C)oc2-c2cc(OC)c(OC)c(OC)c2)cc1 [Compound 5e, 5-(3,4,5-Trimethoxyphenyl)-4-(4-methoxyphenyl)-2-methyloxazole] | 24 ± 10.5 nM |
| COc1ccc(-c2nc(C)sc2-c2cc(OC)c(OC)c(OC)c2)cc1 [Compound 3e, 2-methyl-4-(4′-methoxyphenyl)-5-(3′,4’,5′-trimethoxyphenyl)thiazole, reference compound] | 1980 ± 780 nM |
| COc1ccc(-c2oc(C)nc2-c2cc(OC)c(OC)c(OC)c2)cc1 [Compound 4e, 4-(3,4,5-Trimethoxyphenyl)-5-(4-methoxyphenyl)-2-methyloxazole] | 10.8 ± 4.7 nM |

tested on: panel of seven human tumor cell lines; experiment: Antiproliferative activity, range over panel of seven human tumor cell lines; format: cell-based; details: Homo sapiens, read-out: IC50 values against all cell lines screened
Description: as §1

| SMILES | IC50 |
| --- | --- |
| COc1cc(-c2oc(C)nc2-c2ccc(F)cc2)cc(OC)c1OC [Compound 5b, 4-(4-Fluorophenyl)-5-(3,4,5-trimethoxyphenyl)-2-methyloxazole] | > 9000 nM |

tested on: tubulin; experiment: Inhibition of [3H]colchicine binding to tubulin; details: 1 μM drug; tubulin 1 μM, [3H]colchicine 5 μM
Description: (§2) To evaluate the effect of the compounds on tubulin assembly in vitro[41], varying concentrations of compounds were preincubated with 10 μM bovine brain tubulin in 0.8 M monosodium glutamate (pH adjusted to 6.6 with HCl in a 2.0 M stock solution) at 30 °C and then cooled to 0 °C. After addition of 0.4 mM GTP, the mixtures were transferred to 0 °C cuvettes in a recording spectrophotometer and warmed to 30 °C. Tubulin assembly was followed turbidimetrically at 350 nm. […] The capacity of the test compounds to inhibit colchicine binding to tubulin was measured as described, except that the reaction mixtures contained 1 μM tubulin, 5 μM [^3H]colchicine and 1 or 5 μM test compound.

| SMILES | Colchicine binding % inhibition ± S.D, 1 μM drug |
| --- | --- |
| COc1ccc(-c2oc(C)nc2-c2cc(OC)c(OC)c(OC)c2)cc1 [Compound 4e, 4-(3,4,5-Trimethoxyphenyl)-5-(4-methoxyphenyl)-2-methyloxazole] | 47 ± 4% |

same assay, conditions: 5 μM drug; tubulin 1 μM, [3H]colchicine 5 μM

| SMILES | Colchicine binding % inhibition ± S.D, 5 μM drug |
| --- | --- |
| COc1cc(-c2oc(C)nc2-c2ccc3ccccc3c2)cc(OC)c1OC [Compound 5a, 5-(3,4,5-Trimethoxyphenyl)-2-methyl-4-(naphthalen-3-yl)oxazole] | 64 ± 4% |
| COc1ccc(-c2nc(C)oc2-c2cc(OC)c(OC)c(OC)c2)cc1 [Compound 5e, 5-(3,4,5-Trimethoxyphenyl)-4-(4-methoxyphenyl)-2-methyloxazole] | 54 ± 3% |
| COc1ccc(-c2oc(C)nc2-c2cc(OC)c(OC)c(OC)c2)cc1 [Compound 4e, 4-(3,4,5-Trimethoxyphenyl)-5-(4-methoxyphenyl)-2-methyloxazole] | 78 ± 3% |

tested on: A549; experiment: Antiproliferative MTT assay, A549; format: cell-based, human; details: Homo sapiens, A549, 72 h, mean ± SE
Description: as §1

| SMILES | IC50 |
| --- | --- |
| COc1cc(-c2oc(C)nc2-c2ccc3ccccc3c2)cc(OC)c1OC [Compound 5a, 5-(3,4,5-Trimethoxyphenyl)-2-methyl-4-(naphthalen-3-yl)oxazole] | 45.2 ± 12.5 nM |
| COc1cc(-c2oc(C)nc2-c2ccc(F)cc2)cc(OC)c1OC [Compound 5b, 4-(4-Fluorophenyl)-5-(3,4,5-trimethoxyphenyl)-2-methyloxazole] | > 10000 nM |
| COc1ccc(-c2nc(C)oc2-c2cc(OC)c(OC)c(OC)c2)cc1 [Compound 5e, 5-(3,4,5-Trimethoxyphenyl)-4-(4-methoxyphenyl)-2-methyloxazole] | 243 ± 51.5 nM |
| COc1ccc(-c2nc(C)sc2-c2cc(OC)c(OC)c(OC)c2)cc1 [Compound 3e, 2-methyl-4-(4′-methoxyphenyl)-5-(3′,4’,5′-trimethoxyphenyl)thiazole, reference compound] | 2760 ± 1200 nM |
| COc1ccc(-c2oc(C)nc2-c2cc(OC)c(OC)c(OC)c2)cc1 [Compound 4e, 4-(3,4,5-Trimethoxyphenyl)-5-(4-methoxyphenyl)-2-methyloxazole] | 179 ± 36.3 nM |

tested on: RS 4;11; experiment: Antiproliferative MTT assay, RS 4;11; format: cell-based, human; details: Homo sapiens, RS4-11, 72 h, mean ± SE
Description: as §1

| SMILES | IC50 |
| --- | --- |
| COc1cc(-c2oc(C)nc2-c2ccc3ccccc3c2)cc(OC)c1OC [Compound 5a, 5-(3,4,5-Trimethoxyphenyl)-2-methyl-4-(naphthalen-3-yl)oxazole] | 250 ± 89.3 nM |
| COc1cc(-c2oc(C)nc2-c2ccc(F)cc2)cc(OC)c1OC [Compound 5b, 4-(4-Fluorophenyl)-5-(3,4,5-trimethoxyphenyl)-2-methyloxazole] | > 10000 nM |
| COc1ccc(-c2nc(C)oc2-c2cc(OC)c(OC)c(OC)c2)cc1 [Compound 5e, 5-(3,4,5-Trimethoxyphenyl)-4-(4-methoxyphenyl)-2-methyloxazole] | 17.3 ± 4.2 nM |
| COc1ccc(-c2nc(C)sc2-c2cc(OC)c(OC)c(OC)c2)cc1 [Compound 3e, 2-methyl-4-(4′-methoxyphenyl)-5-(3′,4’,5′-trimethoxyphenyl)thiazole, reference compound] | 2970 ± 738 nM |
| COc1ccc(-c2oc(C)nc2-c2cc(OC)c(OC)c(OC)c2)cc1 [Compound 4e, 4-(3,4,5-Trimethoxyphenyl)-5-(4-methoxyphenyl)-2-methyloxazole] | 7.6 ± 2.3 nM |

tested on: bovine brain tubulin; experiment: Inhibition of tubulin polymerization; format: biochemical; details: tubulin at 10 μM; read-out: Tubulin assembly IC50 ± S.D
Description: as §2

| SMILES | IC50 |
| --- | --- |
| COc1cc(-c2oc(C)nc2-c2ccc3ccccc3c2)cc(OC)c1OC [Compound 5a, 5-(3,4,5-Trimethoxyphenyl)-2-methyl-4-(naphthalen-3-yl)oxazole] | 1600 ± 100 nM |
| COc1ccc(-c2nc(C)oc2-c2cc(OC)c(OC)c(OC)c2)cc1 [Compound 5e, 5-(3,4,5-Trimethoxyphenyl)-4-(4-methoxyphenyl)-2-methyloxazole] | 2600 ± 300 nM |
| COc1ccc(-c2oc(C)nc2-c2cc(OC)c(OC)c(OC)c2)cc1 [Compound 4e, 4-(3,4,5-Trimethoxyphenyl)-5-(4-methoxyphenyl)-2-methyloxazole] | 950 ± 100 nM |
